From PubChem BioAssay AID2060906 (Molecular Pharmacology Branch, DTP, NCI, 2025)

Test system: 485176-168-R4-J1-PDC complex spheroid growth
Experiment: Anticancer human tumor 485176-168-R4-J1-PDC patient-derived pancreatic adenocarcinoma cell line growth inhibition [RAS]
Details: for IC50: curve of first compound; for viability, T/C: stronger effect = lower value
From the text: RAS pathway inhibitors in Combinations in Complex Spheroids
A high-throughput screen of multi-cell type tumor spheroids was designed to identify active combinations of RAS pathway inhibitors and targeted small molecules. Complex spheroids include a stromal component modeled by human endothelial cells (HUVEC) and fibroblasts modeled by human mesenchymal stem cells (MSCs). The concentration ranges selected for each drug and investigational agent were based upon clinically achievable concentrations if the clinical Cmax of the agent was known.
Compounds. The drugs and investigational agents: abemaciclib (NSC768073), cobimetinib (NSC768068), divarasib (GDC6063, NSC841802), docetaxel (NSC628503), GDC-1971 (RLY-1971, NSC841576), gemcitabine (NSC613327), inavolisib (NSC800729), ipatasertib (NSC767898), KB-0742 (NSC834161), MRTX-1133 (NSC836407), osimertinib (NSC779217), RMC-4630 (NSC839698), RMC-6236 (NSC851965), RMC-6291 (NSC852671), Ro-3306 (NSC812927), sapanisertib (NSC764658), SN-38 (NSC673596), staurosporine (NSC755774), SY5609 (NSC837396), and tovorafenib (DAY101, NSC766906), were obtained from the National Cancer Institute (NCI) Developmental Therapeutics Program Chemical Repository. The FDA-approved anticancer drug set is available from the NCI Developmental Therapeutics Program. […] The stock solutions were prepared in dimethyl sulfoxide (DMSO, Sigma-Aldrich, St. Louis, MO, cat. D2650) at 800-fold the tested concentration and stored at -70 degrees C prior to their use. All drugs and investigational agents were tested over a range starting from a high concentration at or near the clinical Cmax and decreasing in half-log increments. If the clinical Cmax for an agent had not been determined, the highest concentration tested was 10 microM.
Cell Culture. All cells were maintained in an incubator at 37 degrees C and 5% CO2 with 95% humidity. The PDC lines were cultured according to standard operating procedures established by the NCI PDMR. All PDCs were thawed and cultured in Matrigel-coated flasks prepared with a working solution of 1X Ham's F-12 nutrient mix, without supplementation (Invitrogen, Waltham, MA, cat. 11765054), 100 U/mL penicillin-streptomycin (Invitrogen, cat. 15140122), and 2.5% Matrigel (Corning Inc., Corning, NY, cat. 354248) for the first three passages. The 362531-283-R-J2-PDC and 782815-120-R-J1-PDC lines were cultured in 6C/Colon 1B media, which includes advanced DMEM/F-12 (Thermo Fisher Scientific, cat. 12634028), 10 mM HEPES (Thermo Fisher Scientific, cat. 15630080), 1X GlutaMAX supplement (Thermo Fisher Scientific, cat. 35050061), 0.1 mg/mL primocin (InvivoGen, San Diego, CA, cat. ant-pm-2), 10% defined fetal bovine serum, heat inactivated (HyClone Laboratories Inc., Logan, UT, cat. SH30070.03HI), 50% L-WRN conditioned media (ATCC, cat. CRL-3276), 1.25 mM N-Acetyl-L-cysteine (Sigma-Aldrich, cat. A9165), 10 mM nicotinamide (Sigma-Aldrich, cat. N0636), 1X B-27 supplement (Thermo Fisher Scientific, cat. 17504044), 1X N-2 supplement (Thermo Fisher Scientific, cat. 17502048), 50 ng/mL human EGF (Thermo Fisher Scientific, cat. PHG0311), and 10 microM Y-27632 dihydrochloride (Tocris Bioscience, cat. 1254). The K12877-001-R-J1-PDC line was cultured in 6I media, which includes all 6C/Colon 1B media plus 10 ng/mL human FGF-10 (PeproTech, cat. 100-26), 1 ng/mL human FGF-2 (PeproTech, cat. 100-18B), 1 µM prostaglandin E2 (Tocris Bioscience, cat. 2296), […] hydrocortisone (Sigma-Aldrich, cat. H4001), and […] bovine insulin (Sigma-Aldrich, cat. I6634). The K86415-001-R-J1-PDC line was cultured in 6D media, which includes all 6C/Colon 1B media components minus the L-WRN conditioned media. The 485176-168-R4-J1-PDC was cultured in PANC media, which includes all 6C/Colon 1B media plus 100 ng/mL human FGF-10 (PeproTech, cat. 100-26), 500 nM SB-431542 (Selleckchem, cat. S1067), and 10 nM gastrin (Tocris Bioscience, cat. 3006). […]
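Further: spheroids exposed to compounds for seven days before readout.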
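Wherever viability, T/C is given: luminescence viability expressed relative to DMSO vehicle wells set as 100%.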

CCC(CC)c1cc(NC2CCC(N)C2)n2nccc2n1 (configuration not stated) + C#Cc1c(F)ccc2cc(O)cc(-c3ncc4c(N5CC6CCC(C5)N6)nc(OCC56CCCN5CC(F)C6)nc4c3F)c12
IC50 (second compound 0.0316 µM): 1360 nM | IC50 (second compound 0.1 µM): 1480 nM | IC50 (second compound 0.316 µM): 1610 nM | IC50 (second compound 1 µM): 1610 nM | IC50 (second compound 3.16 µM): 1500 nM | IC50 (second compound 10 µM): 1460 nM | viability, T/C (second compound 0.0316 µM, first compound 0.0316 µM): 115% | viability, T/C (second compound 0.0316 µM, first compound 0.1 µM): 80.2% | viability, T/C (second compound 0.0316 µM, first compound 0.316 µM): 102% | viability, T/C (second compound 0.0316 µM, first compound 1 µM): 67.5% | viability, T/C (second compound 0.0316 µM, first compound 3.16 µM): 2.68% | viability, T/C (second compound 0.0316 µM, first compound 10 µM): 0.57% | viability, T/C (second compound 0.1 µM, first compound 0.0316 µM): 105% | viability, T/C (second compound 0.1 µM, first compound 0.1 µM): 106% | viability, T/C (second compound 0.1 µM, first compound 0.316 µM): 95.3% | viability, T/C (second compound 0.1 µM, first compound 1 µM): 74.5% | viability, T/C (second compound 0.1 µM, first compound 3.16 µM): 3.04% | viability, T/C (second compound 0.1 µM, first compound 10 µM): 0.56% | viability, T/C (second compound 0.316 µM, first compound 0.0316 µM): 85.5% | viability, T/C (second compound 0.316 µM, first compound 0.1 µM): 103% | viability, T/C (second compound 0.316 µM, first compound 0.316 µM): 94.1% | viability, T/C (second compound 0.316 µM, first compound 1 µM): 83.5% | viability, T/C (second compound 0.316 µM, first compound 3.16 µM): 2.75% | viability, T/C (second compound 0.316 µM, first compound 10 µM): 0.5% | viability, T/C (second compound 1 µM, first compound 0.0316 µM): 113% | viability, T/C (second compound 1 µM, first compound 0.1 µM): 89.7% | viability, T/C (second compound 1 µM, first compound 0.316 µM): 92% | viability, T/C (second compound 1 µM, first compound 1 µM): 83.1% | viability, T/C (second compound 1 µM, first compound 3.16 µM): 2.71% | viability, T/C (second compound 1 µM, first compound 10 µM): 0.44% | viability, T/C (second compound 3.16 µM, first compound 0.0316 µM): 103% | viability, T/C (second compound 3.16 µM, first compound 0.1 µM): 90.3% | viability, T/C (second compound 3.16 µM, first compound 0.316 µM): 97% | viability, T/C (second compound 3.16 µM, first compound 1 µM): 75.2% | viability, T/C (second compound 3.16 µM, first compound 3.16 µM): 3.48% | viability, T/C (second compound 3.16 µM, first compound 10 µM): 0.51% | viability, T/C (second compound 10 µM, first compound 0.0316 µM): 93.3% | viability, T/C (second compound 10 µM, first compound 0.1 µM): 96.3% | viability, T/C (second compound 10 µM, first compound 0.316 µM): 79% | viability, T/C (second compound 10 µM, first compound 1 µM): 73% | viability, T/C (second compound 10 µM, first compound 3.16 µM): 2.33% | viability, T/C (second compound 10 µM, first compound 10 µM): 0.39%
